Assay results from publication PMC3285688, “Active Site Mutations Change the Cleavage Specificity of Neprilysin” (PLoS ONE, 2012).

Tested on: NEP
Experiment: Degradation of peptide substrates by NEP: extent and cleavage sites (HPLC, mass spectrometry)
Conditions: NEP and mutants, 20 mM MES pH 6.5, 37°C
Description: Degradation of insulin B chain by wild-type NEP was analyzed by reverse-phase HPLC following the appearance of each product as a function of time, Figure 1 . Product peaks were collected and subsequently analyzed by mass spectrometry to determine their identities. […] Based on the order of appearance of each peak, it is likely that insulin B chain1–10, insulin B chain1–11, insulin B chain1–14 and its partner peak insulin B chain15–30, insulin B chain17–30, and insulin B chain24–30 are all products of primary cleavages. These products appear at the first time point when approximately 15% hydrolysis of insulin B chain had occurred (30 minutes). At 30% hydrolysis (90 min.), peaks corresponding to insulin B chain1–5 and insulin B chain17–24 are observed. Peaks for insulin B chain1–16 and insulin B chain15–23 become apparent at >30% insulin B chain hydrolysis. […] It is likely that these are transient products that are subsequently cleaved contributing to other product peaks (i.e. insulin B chain24–30).
To further study the effect of mutations on cleavage site specificity, time course assays were also performed for the hydrolysis of the physiological substrate Aß1–40. Like the analysis of insulin B chain, a time course assay was first done with NEP to identify cleavage products, Figure 3 and Table 6 . After 15% hydrolysis of Aß1–40 (150 min.) by NEP there were six discernable product peaks corresponding to Aß1–16, Aß1–17, Aß10–17, Aß20–28, Aß20–29, and Aß20–30. […]
Cleavage of physiological peptides was measured via reverse phase high performance liquid chromatography (HPLC) following incubation of the purified NEP or its mutants with 15 µM insulin B chain (Sigma Aldrich), 24 µM Aß1–40 (Anaspec), or 64 µM leu-ENK (Sigma) in 100 µL of 20 mM MES, pH 6.5, at 37°C. […] Peptides and hydrolysis products were detected at 214 nm and quantified by measuring peak areas. Peptides obtained from HPLC were analyzed on an Applied Biosystems 4800 MALDI TOF/TOF Proteomics Analyzer at the University of Kentucky Proteomics core. […]

Question: Which “Cleavage site (bond cleaved)” value does the source give for “glutaryl-Ala-Ala-Phe-4-methoxy-2-naphthylamide [Glut-Ala-Ala-Phe-MNA, fluorogenic peptide substrate]” here?
Answer: Its value is “Ala-Phe peptide bond”.
